Assay results as given in patent US12077503B2, “Substituted cyclic amides and their use as herbicides” (FMC CORPORATION, priority 2015, dated 2024).

Columns and labels:
Format in all cases: in vivo
Kochia (Kochia scoparia) = test: Test A preemergence; conditions: Bassia scoparia, pre-emergence, 240 h, 0 to 100 scale (0 no effect, 100 complete control), read-out: Plant response rating, Kochia
In short: (§1)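 Treatment is preemergence as a directed soil spray after planting, or postemergence at the one- to two-leaf stage, with test chemical in a non-phytotoxic solvent mixture plus surfactant. Plants stay in the greenhouse about 10 d before visual injury scoring on a 0 to 100 scale versus untreated controls.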

[1] = test system: barnyardgrass (Echinochloa crus-galli); test: Test A preemergence; conditions: Echinochloa crus-galli, pre-emergence, 240 h, 0 to 100 scale (0 no effect, 100 complete control), read-out: Plant response rating, Barnyardgrass
In short: as §1

[2] = test system: giant foxtail (Setaria faberii); test: Test A preemergence; conditions: Setaria faberi, pre-emergence, 240 h, 0 to 100 scale (0 no effect, 100 complete control), read-out: Plant response rating, Foxtail, Giant
In short: as §1

[3] = test system: pigweed (Amaranthus retroflexus); test: Test A preemergence; conditions: Amaranthus retroflexus, pre-emergence, 240 h, 0 to 100 scale (0 no effect, 100 complete control), read-out: Plant response rating, Pigweed
[4] = test system: ragweed (common ragweed, Ambrosia elatior); test: Test A preemergence; conditions: Ambrosia artemisiifolia, pre-emergence, 240 h, 0 to 100 scale (0 no effect, 100 complete control), read-out: Plant response rating, Ragweed
In short: as §1

[5] = test system: ryegrass, Italian (Italian ryegrass, Lolium multiflorum); test: Test A preemergence; conditions: Lolium multiflorum, pre-emergence, 240 h, 0 to 100 scale (0 no effect, 100 complete control), read-out: Plant response rating, Ryegrass, Italian
In short: as §1

[6] = test system: Galium (catchweed bedstraw, Galium aparine); test: Test A postemergence; conditions: Galium, post-emergence, 240 h, Postemergence
In short: as §1

[7] = test system: barnyardgrass (Echinochloa crus-galli); test: Test A postemergence; conditions: Echinochloa crus-galli, post-emergence, 240 h, Postemergence
In short: as §1

[8] = test system: blackgrass (Alopecurus myosuroides); test: Test A postemergence; conditions: Alopecurus myosuroides, post-emergence, 240 h, Postemergence
In short: as §1

corn (Zea mays) = test: Test A postemergence; conditions: Zea mays, post-emergence, 240 h, Postemergence
In short: as §1

[9] = test system: giant foxtail (Setaria faberii); test: Test A postemergence; conditions: Setaria faberi, post-emergence, 240 h, Postemergence
In short: as §1

[10] = test system: pigweed (Amaranthus retroflexus); test: Test A postemergence; conditions: Amaranthus retroflexus, post-emergence, 240 h, Postemergence
In short: as §1

[11] = test system: ragweed (common ragweed, Ambrosia elatior); test: Test A postemergence; conditions: Ambrosia artemisiifolia, post-emergence, 240 h, Postemergence
In short: as §1

[12] = test system: ryegrass, Italian (Italian ryegrass, Lolium multiflorum); test: Test A postemergence; conditions: Lolium multiflorum, post-emergence, 240 h, Postemergence
In short: as §1

[13] = test system: wheat (Triticum aestivum); test: Test A postemergence; conditions: Triticum aestivum, post-emergence, 240 h, Postemergence
In short: as §1

CN1C[C@H](c2ccc(C(F)(F)F)cc2)[C@@H](C(=O)Nc2cccc(C#N)c2F)C1=O [Compound 1381]
pest or weed control at 500 g/ha (Kochia (Kochia scoparia); 500 g ai/ha, preemergence): 80%
pest or weed control at 125 g/ha (Kochia (Kochia scoparia); Preemergence, 125 g ai/ha): 80%
pest or weed control at 500 g/ha ([1]; 500 g ai/ha, preemergence): 100%
pest or weed control at 125 g/ha ([1]; Preemergence, 125 g ai/ha): 90%
pest or weed control at 500 g/ha ([2]; 500 g ai/ha, preemergence): 100%
pest or weed control at 125 g/ha ([2]; Preemergence, 125 g ai/ha): 100%
pest or weed control at 500 g/ha ([3]; 500 g ai/ha, preemergence): 100%
pest or weed control at 125 g/ha ([3]; Preemergence, 125 g ai/ha): 90%
pest or weed control at 500 g/ha ([4]; 500 g ai/ha, preemergence): 80%
pest or weed control at 125 g/ha ([4]; Preemergence, 125 g ai/ha): 70%
pest or weed control at 500 g/ha ([5]; 500 g ai/ha, preemergence): 50%
pest or weed control at 125 g/ha ([5]; Preemergence, 125 g ai/ha): 30%
pest or weed control at 125 g/ha ([6]; 125 g ai/ha, visual rating about 10 d after treatment, read-out: Galium plant response rating (0 to 100 scale)): 50%
pest or weed control at 500 g/ha ([6]; 500 g ai/ha, visual injury, 0 to 100 scale (0 no effect, 100 complete control), approx. 10 d, read-out: Plant response rating, Galium): 60%
pest or weed control at 125 g/ha ([7]; 125 g ai/ha, visual rating about 10 d after treatment, read-out: Barnyardgrass plant response rating (0 to 100 scale, 0 no effect, 100 complete control)): 80%
pest or weed control at 500 g/ha ([7]; 500 g ai/ha, visual injury, 0 to 100 scale (0 no effect, 100 complete control), approx. 10 d, read-out: Plant response rating, Barnyardgrass): 80%
pest or weed control at 125 g/ha ([8]; 125 g ai/ha, visual rating about 10 d after treatment, read-out: Blackgrass plant response rating (0 to 100 scale)): 40%
pest or weed control at 500 g/ha ([8]; 500 g ai/ha, visual injury, 0 to 100 scale (0 no effect, 100 complete control), approx. 10 d, read-out: Plant response rating, Blackgrass): 60%
plant injury at 125 g/ha (corn (Zea mays); 125 g ai/ha, visual rating about 10 d after treatment, read-out: Corn plant response rating (0 to 100 scale)): 40%
Corn plant response rating (crop injury, 0 = no effect, 100 = complete kill) at 500 g/ha (corn (Zea mays); 500 g ai/ha, visual injury, 0 to 100 scale (0 no effect, 100 complete control), approx. 10 d): 60%
pest or weed control at 125 g/ha ([9]; 125 g ai/ha, visual rating about 10 d after treatment, read-out: Foxtail, Giant plant response rating (0 to 100 scale)): 90%
pest or weed control at 500 g/ha ([9]; 500 g ai/ha, visual injury, 0 to 100 scale (0 no effect, 100 complete control), approx. 10 d, read-out: Plant response rating, Foxtail, Giant): 90%
pest or weed control at 125 g/ha ([10]; 125 g ai/ha, visual rating about 10 d after treatment, read-out: Pigweed plant response rating (0 to 100 scale)): 70%
pest or weed control at 500 g/ha ([10]; 500 g ai/ha, visual injury, 0 to 100 scale (0 no effect, 100 complete control), approx. 10 d, read-out: Plant response rating, Pigweed): 70%
pest or weed control at 125 g/ha ([11]; 125 g ai/ha, visual rating about 10 d after treatment, read-out: Ragweed plant response rating (0 to 100 scale)): 50%
pest or weed control at 500 g/ha ([11]; 500 g ai/ha, visual injury, 0 to 100 scale (0 no effect, 100 complete control), approx. 10 d, read-out: Plant response rating, Ragweed): 60%
pest or weed control at 125 g/ha ([12]; 125 g ai/ha, visual rating about 10 d after treatment, read-out: Ryegrass, Italian plant response rating (0 to 100 scale)): 50%
pest or weed control at 500 g/ha ([12]; 500 g ai/ha, visual injury, 0 to 100 scale (0 no effect, 100 complete control), approx. 10 d, read-out: Plant response rating, Ryegrass, Italian): 60%
plant injury at 125 g/ha ([13]; 125 g ai/ha, visual rating about 10 d after treatment, read-out: Wheat plant response rating (0 to 100 scale)): 30%
plant injury at 500 g/ha ([13]; 500 g ai/ha, visual injury, 0 to 100 scale (0 no effect, 100 complete control), approx. 10 d, read-out: Plant response rating, Wheat): 50%
